Assay results taken from the NIST ThermoML archive (doi:10.1021/acs.jced.6b00786).

Experiment: xn = mol fraction of the nth substance listed
Conditions: 101 kPa, Liquid, Vibrating tube method

NC=O [formamide] + O
Conditions | mass density [kg/m3]
278.15 K, x1 = 1 | 1146.62
279.15 K, x1 = 0.00244 | 1001
279.15 K, x1 = 0.00515 | 1002.18
279.15 K, x1 = 0.0086 | 1003.65
279.15 K, x1 = 0.02032 | 1008.52
279.15 K, x1 = 0.03478 | 1014.19
279.15 K, x1 = 0.04976 | 1019.74
279.15 K, x1 = 0.06674 | 1025.57
279.15 K, x1 = 0.08229 | 1030.68
279.15 K, x1 = 0.1171 | 1041.07
280.15 K, x1 = 0.00244 | 1000.95
280.15 K, x1 = 0.00515 | 1002.11
280.15 K, x1 = 0.0086 | 1003.57
280.15 K, x1 = 0.02032 | 1008.39
280.15 K, x1 = 0.03478 | 1014
280.15 K, x1 = 0.04976 | 1019.49
280.15 K, x1 = 0.06674 | 1025.28
280.15 K, x1 = 0.08229 | 1030.32
280.15 K, x1 = 0.1171 | 1040.65
281.15 K, x1 = 0.00244 | 1000.89
281.15 K, x1 = 0.00515 | 1002.04
281.15 K, x1 = 0.0086 | 1003.47
281.15 K, x1 = 0.02032 | 1008.25
281.15 K, x1 = 0.03478 | 1013.8
281.15 K, x1 = 0.04976 | 1019.23
281.15 K, x1 = 0.06674 | 1024.97
281.15 K, x1 = 0.08229 | 1029.97
281.15 K, x1 = 0.1171 | 1040.23
282.15 K, x1 = 0.00244 | 1000.81
282.15 K, x1 = 0.00515 | 1001.94
282.15 K, x1 = 0.0086 | 1003.37
282.15 K, x1 = 0.02032 | 1008.09
282.15 K, x1 = 0.03478 | 1013.58
282.15 K, x1 = 0.04976 | 1018.97
282.15 K, x1 = 0.06674 | 1024.66
282.15 K, x1 = 0.08229 | 1029.6
282.15 K, x1 = 0.1171 | 1039.81
283.15 K, x1 = 0.00244 | 1000.72
283.15 K, x1 = 0.00515 | 1001.84
283.15 K, x1 = 0.0086 | 1003.25
283.15 K, x1 = 0.02032 | 1007.94
283.15 K, x1 = 0.03478 | 1013.36
283.15 K, x1 = 0.04976 | 1018.7
283.15 K, x1 = 0.06674 | 1024.35
283.15 K, x1 = 0.08229 | 1029.24
283.15 K, x1 = 0.1171 | 1039.36
288.15 K, x1 = 0.00244 | 1000.07
288.15 K, x1 = 0.00515 | 1001.13
288.15 K, x1 = 0.0086 | 1002.47
288.15 K, x1 = 0.02032 | 1006.89
288.15 K, x1 = 0.03478 | 1012.11
288.15 K, x1 = 0.04976 | 1017.23
288.15 K, x1 = 0.06674 | 1022.65
288.15 K, x1 = 0.08229 | 1027.38
288.15 K, x1 = 0.1171 | 1037.14
288.15 K, x1 = 0.1745 | 1051.09
288.15 K, x1 = 0.2169 | 1059.95
288.15 K, x1 = 0.2557 | 1067.27
288.15 K, x1 = 0.3026 | 1075.25
288.15 K, x1 = 0.351 | 1082.54
288.15 K, x1 = 0.4027 | 1089.57
288.15 K, x1 = 0.4487 | 1095.2
288.15 K, x1 = 0.4886 | 1099.61
288.15 K, x1 = 0.5601 | 1106.92
288.15 K, x1 = 0.5916 | 1109.89
288.15 K, x1 = 0.6674 | 1116.35
288.15 K, x1 = 0.7066 | 1119.42
